In patent US20050014149A1, “Assay for inhibitors of translocases” (priority 2001, published 2005):

Target: SV40 large T antigen (Simian virus 40, UniProt P03070)
Test: Homogeneous helicase assay (streptavidin displacement from biotin-labelled oligonucleotide, biotin-4-fluorescein quenching)
Type: biochemical
Settings: inhibitor added to the helicase assay; fluorescence ex 485 nm / em 535 nm; FIG. 4
Source text: The helicase substrate takes the form of an oligonucleotide of length appropriate to the helicase under test that is biotinylated at one end, appropriate to the directionality of the helicase under test. In this example, a single-strand 60-mer with the sequence […] TGCATGATG was labelled with biotin at the 5′-terminus (obtained from Eurogentec, Belgium) so that it could be used as a substrate for the helicase function of the SV40 large T antigen which is a 3′-5′ helicase.
Equal volumes of streptavidin and biotin-labelled oligonucleotide dissolved in reaction buffer (see below) were mixed in such a way that there was at least a four-fold molar excess of oligonucleotide over streptavidin. This is to ensure the saturation of all biotin-binding sites on the streptavidin molecule (4 biotin-binding sites per molecule streptavidin). This mixture was incubated for at least 15 minutes before being used for the assay.
An aliquot of the oligonucleotide/streptavidin complex (oligo/SA) was then mixed with SV40 large T antigen and biotin-4-fluorescein in a suitable buffer, in this case 50 mM Tris-HCl pH 7.5, containing 3 mM MgCl2, 5 mM dithiothreitol and 100 μg/ml bovine serum albumin and pipetted into 384-well microplates.
The enzyme reaction was started by adding an appropriate amount of adenosine triphosphate and incubating the plate at 37° C. […]

Chain of SV40 large T antigen (P03070 whole entry): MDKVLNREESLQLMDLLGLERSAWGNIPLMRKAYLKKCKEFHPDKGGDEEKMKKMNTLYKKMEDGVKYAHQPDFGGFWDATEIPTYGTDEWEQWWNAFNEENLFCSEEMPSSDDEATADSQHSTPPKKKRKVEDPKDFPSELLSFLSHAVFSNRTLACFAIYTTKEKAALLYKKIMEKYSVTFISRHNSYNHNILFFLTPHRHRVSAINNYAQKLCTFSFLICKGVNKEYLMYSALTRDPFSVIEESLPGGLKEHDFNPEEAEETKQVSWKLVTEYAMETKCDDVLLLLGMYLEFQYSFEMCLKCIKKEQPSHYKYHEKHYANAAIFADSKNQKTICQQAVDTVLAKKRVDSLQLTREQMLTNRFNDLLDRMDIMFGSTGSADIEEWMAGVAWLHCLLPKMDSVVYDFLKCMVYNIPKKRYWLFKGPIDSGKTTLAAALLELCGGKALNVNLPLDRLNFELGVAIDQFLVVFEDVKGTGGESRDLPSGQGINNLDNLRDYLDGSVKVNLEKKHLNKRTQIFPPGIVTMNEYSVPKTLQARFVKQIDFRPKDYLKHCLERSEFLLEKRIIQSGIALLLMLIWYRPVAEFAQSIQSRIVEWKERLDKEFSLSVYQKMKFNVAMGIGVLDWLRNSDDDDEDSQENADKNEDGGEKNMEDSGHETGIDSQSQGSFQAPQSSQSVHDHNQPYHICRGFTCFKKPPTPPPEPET

Cn1cc(NC(=O)c2cc(NC(=O)c3cc(NC=O)cn3C)cn2C)cc1C(=O)NCCC(=N)N [Distamycin A]
helicase activity (displacement of the streptavidin from the biotin-labelled substrate): dose-dependently decrease helicase activity
